Experimental data reported in ChEMBL document CHEMBL3576804, “Novel Potent Orthosteric Antagonist of ASIC1a Prevents NMDAR-Dependent LTP Induction” (J Med Chem, 2015).
Each block holds one compound with its values, some of them ahead of it. Active and inactive are the calls of the source. The calls are words filed in the database; no cut-off is given here.

What was measured:
[1] = target: T1, Acid-sensing ion channel 1 (Homo sapiens) (UniProt P78348); assay: Inhibition of human ASIC1a endogenously expressed in HEK293 cells clamped at -100 mV gated ionic current at 100 uM at pH 6.7 by standard whole cell patch clamp assay; format: cell-based
T1 sequence (whole entry): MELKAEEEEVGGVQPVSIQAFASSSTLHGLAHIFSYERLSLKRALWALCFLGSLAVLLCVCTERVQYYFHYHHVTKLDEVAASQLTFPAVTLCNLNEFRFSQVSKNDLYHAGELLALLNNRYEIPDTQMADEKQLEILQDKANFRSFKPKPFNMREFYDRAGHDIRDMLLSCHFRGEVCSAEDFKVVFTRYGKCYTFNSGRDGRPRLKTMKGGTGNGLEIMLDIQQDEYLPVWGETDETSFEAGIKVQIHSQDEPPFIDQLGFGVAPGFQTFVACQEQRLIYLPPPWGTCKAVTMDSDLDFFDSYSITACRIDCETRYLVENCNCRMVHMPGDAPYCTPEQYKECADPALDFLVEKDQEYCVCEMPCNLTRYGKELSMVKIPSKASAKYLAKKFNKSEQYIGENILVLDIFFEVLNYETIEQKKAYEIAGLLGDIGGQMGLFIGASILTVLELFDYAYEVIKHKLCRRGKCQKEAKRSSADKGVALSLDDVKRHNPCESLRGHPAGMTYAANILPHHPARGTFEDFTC

[2] = target: T1, Acid-sensing ion channel 1 (Homo sapiens); assay: Inhibition of human ASIC1a endogenously expressed in HEK293 cells clamped at -100 mV gated ionic current at 100 uM at pH 5.0 by standard whole cell patch clamp assay; format: cell-based
[3] = target: T1, Acid-sensing ion channel 1 (Homo sapiens); assay: Inhibition of human ASIC1a endogenously expressed in HEK293 cells clamped at -100 mV gated ionic current at 10 uM at pH 6.7 by standard whole cell patch clamp assay; format: cell-based
[4] = target: T1, Acid-sensing ion channel 1 (Homo sapiens); assay: Inhibition of human ASIC1a endogenously expressed in HEK293 cells clamped at -100 mV gated ionic current at 10 uM at pH 5.0 by standard whole cell patch clamp assay; format: cell-based
Hippocampus [5] = assay: Effect on slope of field excitatory postsynaptic potential in Wistar rat hippocampal CA3-CA1 region at 100 nM by patch clamp method; format: functional
[6] = target: T2, Acid-sensing ion channel 1 (Homo sapiens, UniProt P78348); assay: Inhibition of human ASIC1a endogenously expressed in HEK293 cells clamped at -100 mV gated ionic current at pH 5.0 by standard whole cell patch clamp assay; format: cell-based
T2 sequence (P78348 whole entry): T1 sequence (whole entry)

[7] = target: T1, Acid-sensing ion channel 1 (Homo sapiens); assay: Inhibition of human ASIC1a endogenously expressed in HEK293 cells clamped at -20 mV gated ionic current at 100 nM by standard whole cell patch clamp assay; format: cell-based
[8] = target: T2, Acid-sensing ion channel 1; assay: Inhibition of human ASIC1a endogenously expressed in HEK293 cells clamped at -100 mV gated ionic current at pH 6.7 by standard whole cell patch clamp assay; format: cell-based
[9] = target: T3, Acid-sensing ion channel 2 (Rattus norvegicus) (UniProt Q62962); assay: Inhibition of ASIC2 in Wistar rat hippocampal neurons assessed as slow ASIC2-like currents level at 10 uM by patch clamp assay; design: scale not given: the % may be the effect or the level left
T3 sequence (whole entry): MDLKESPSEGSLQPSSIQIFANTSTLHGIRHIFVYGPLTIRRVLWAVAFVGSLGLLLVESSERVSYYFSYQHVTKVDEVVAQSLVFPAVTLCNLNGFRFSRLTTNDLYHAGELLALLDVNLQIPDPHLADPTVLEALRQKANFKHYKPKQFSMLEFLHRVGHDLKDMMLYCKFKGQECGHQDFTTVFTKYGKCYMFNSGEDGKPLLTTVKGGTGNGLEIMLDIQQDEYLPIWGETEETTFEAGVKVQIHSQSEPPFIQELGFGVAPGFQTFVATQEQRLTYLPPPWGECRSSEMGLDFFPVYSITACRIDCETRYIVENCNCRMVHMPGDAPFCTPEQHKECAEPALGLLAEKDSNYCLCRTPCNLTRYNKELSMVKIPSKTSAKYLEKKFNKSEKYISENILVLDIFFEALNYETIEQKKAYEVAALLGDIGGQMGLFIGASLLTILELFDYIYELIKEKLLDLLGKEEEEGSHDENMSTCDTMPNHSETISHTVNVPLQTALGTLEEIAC

[10] = target: T4, Acid-sensing ion channel 1 (Rattus norvegicus) (UniProt P55926); assay: Inhibition of ASIC1a in Wistar rat pyramidal hippocampal neurons assessed as reduction in main ionic currents at 1 uM by patch clamp assay
T4 sequence (whole entry): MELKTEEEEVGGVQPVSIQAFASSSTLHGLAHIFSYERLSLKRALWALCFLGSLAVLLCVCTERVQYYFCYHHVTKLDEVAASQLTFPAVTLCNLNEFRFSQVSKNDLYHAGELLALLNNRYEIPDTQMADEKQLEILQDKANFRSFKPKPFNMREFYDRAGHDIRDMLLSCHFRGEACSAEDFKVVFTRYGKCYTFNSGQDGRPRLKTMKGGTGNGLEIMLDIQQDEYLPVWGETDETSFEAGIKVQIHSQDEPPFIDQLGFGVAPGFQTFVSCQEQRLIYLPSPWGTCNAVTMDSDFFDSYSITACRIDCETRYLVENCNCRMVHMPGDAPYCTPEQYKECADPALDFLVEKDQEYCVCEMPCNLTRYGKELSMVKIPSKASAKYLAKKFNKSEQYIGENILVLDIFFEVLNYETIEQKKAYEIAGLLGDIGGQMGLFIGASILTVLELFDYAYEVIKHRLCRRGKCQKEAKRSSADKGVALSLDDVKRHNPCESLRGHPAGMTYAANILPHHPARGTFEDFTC

[11] = target: T1, Acid-sensing ion channel 1 (Homo sapiens); assay: Orthosteric non-competitive inhibition of human ASIC1a endogenously expressed in HEK293 cells clamped at -100 mV gated ionic current assessed as maximal evoked response for steady-state activation at 1 uM by standard whole cell patch clamp assay relative to untreated control; format: cell-based; design: scale not given: the % may be the effect or the level left
[12] = target: T2, Acid-sensing ion channel 1; assay: Orthosteric non-competitive inhibition of human ASIC1a endogenously expressed in HEK293 cells clamped at -100 mV gated ionic current assessed as EC50 for steady state activation at 10 nM by standard whole cell patch clamp assay (reference value: 6.57 +/- 0.01 pH); format: cell-based
Hippocampus [13] = assay: Effect on amplitude of field excitatory postsynaptic potential in Wistar rat hippocampal CA3-CA1 region at 100 nM by patch clamp method; format: functional
[14] = target: T1, Acid-sensing ion channel 1 (Homo sapiens); assay: Reversible inhibition of human ASIC1a endogenously expressed in HEK293 cells clamped at -100 mV gated ionic current at pH 6.7 measured after drug wash out by standard whole cell patch clamp assay; format: cell-based
Hippocampus [15] = assay: Blocking of short-term potentiation in Wistar rat hippocampal CA3-CA1 regions at 100 nM by patch clamp method (Rvb =142.9 +/- 25%); format: functional
Hippocampus [16] = assay: Effect on NMDAR-independent long-term potentiation in Wistar rat hippocampal MF-CA3 region at 100 nM in presence of NMDA receptor blocker MK801 by patch clamp method (reference value: 118.3 +/- 9.6%); format: functional
[17] = target: T1, Acid-sensing ion channel 1 (Homo sapiens); assay: Orthosteric non-competitive inhibition of human ASIC1a endogenously expressed in HEK293 cells clamped at -100 mV gated ionic current assessed as maximal evoked response for steady-state activation at 100 nM by standard whole cell patch clamp assay relative to untreated control; format: cell-based; design: scale not given: the % may be the effect or the level left
[18] = target: T1, Acid-sensing ion channel 1 (Homo sapiens); assay: Inhibition of human ASIC1a endogenously expressed in HEK293 cells clamped at -100 mV gated ionic current at 100 nM by standard whole cell patch clamp assay; format: cell-based
Hippocampus [19] = assay: Increase in short-term potentiation in Wistar rat hippocampal CA3-CA1 region at 100 nM by patch clamp method (reference value: 225.9 +/- 12.4%); format: functional
[20] = target: T1, Acid-sensing ion channel 1 (Homo sapiens); assay: Orthosteric non-competitive inhibition of human ASIC1a endogenously expressed in HEK293 cells clamped at -100 mV gated ionic current assessed as maximal evoked response for steady-state activation at 10 nM by standard whole cell patch clamp assay relative to untreated control; format: cell-based; design: scale not given: the % may be the effect or the level left
[21] = target: T2, Acid-sensing ion channel 1; assay: Orthosteric non-competitive inhibition of human ASIC1a endogenously expressed in HEK293 cells clamped at -100 mV gated ionic current assessed as EC50 for steady state activation at 1 uM by standard whole cell patch clamp assay (reference value: 6.57 +/- 0.01 pH); format: cell-based
[22] = target: T1, Acid-sensing ion channel 1 (Homo sapiens); assay: Inhibition of human ASIC1a endogenously expressed in HEK293 cells clamped at -100 mV gated ionic current at 100 nM at pH 5.0 by standard whole cell patch clamp assay; format: cell-based
Hippocampus [23] = assay: Increase in amplitude of field excitatory postsynaptic potential in Wistar rat hippocampal CA3-CA1 region at 100 nM by patch clamp method; format: functional, tissue-based
Hippocampus [24] = assay: Increase in slope of field excitatory postsynaptic potential in Wistar rat hippocampal CA3-CA1 region at 100 nM by patch clamp method; format: functional, tissue-based
[25] = target: T4, Acid-sensing ion channel 1 (Rattus norvegicus); assay: Inhibition of ASIC1a in Wistar rat pyramidal hippocampal neurons assessed as ASIC1a-like currents level at 100 nM by patch clamp assay; design: scale not given: the % may be the effect or the level left
[26] = target: T1, Acid-sensing ion channel 1 (Homo sapiens); assay: Inhibition of human ASIC1a endogenously expressed in HEK293 cells clamped at -100 mV gated ionic current at 100 nM in presence of cellular membrane depolarization by standard whole cell patch clamp assay; format: cell-based
[27] = target: T1, Acid-sensing ion channel 1 (Homo sapiens); assay: Inhibition of human ASIC1a endogenously expressed in HEK293 cells clamped at -100 mV gated ionic current at 100 nM at pH 6.7 by standard whole cell patch clamp assay; format: cell-based
[28] = target: T4, Acid-sensing ion channel 1 (Rattus norvegicus); assay: Inhibition of ASIC1a in Wistar rat hippocampal neurons assessed as ASIC1a-like currents level at 10 uM by patch clamp assay; design: scale not given: the % may be the effect or the level left
[29] = target: T2, Acid-sensing ion channel 1; assay: Orthosteric non-competitive inhibition of human ASIC1a endogenously expressed in HEK293 cells clamped at -100 mV gated ionic current assessed as EC50 for steady state activation at 100 nM by standard whole cell patch clamp assay (reference value: 6.57 +/- 0.01 pH); format: cell-based
[30] = target: T5, Acid-sensing ion channel 3 (Rattus norvegicus) (UniProt O35240); assay: Inhibition of ASIC3 in Wistar rat hippocampal neurons assessed as fast ASIC3-like currents level at 10 uM by patch clamp assay; design: scale not given: the % may be the effect or the level left
T5 sequence (whole entry): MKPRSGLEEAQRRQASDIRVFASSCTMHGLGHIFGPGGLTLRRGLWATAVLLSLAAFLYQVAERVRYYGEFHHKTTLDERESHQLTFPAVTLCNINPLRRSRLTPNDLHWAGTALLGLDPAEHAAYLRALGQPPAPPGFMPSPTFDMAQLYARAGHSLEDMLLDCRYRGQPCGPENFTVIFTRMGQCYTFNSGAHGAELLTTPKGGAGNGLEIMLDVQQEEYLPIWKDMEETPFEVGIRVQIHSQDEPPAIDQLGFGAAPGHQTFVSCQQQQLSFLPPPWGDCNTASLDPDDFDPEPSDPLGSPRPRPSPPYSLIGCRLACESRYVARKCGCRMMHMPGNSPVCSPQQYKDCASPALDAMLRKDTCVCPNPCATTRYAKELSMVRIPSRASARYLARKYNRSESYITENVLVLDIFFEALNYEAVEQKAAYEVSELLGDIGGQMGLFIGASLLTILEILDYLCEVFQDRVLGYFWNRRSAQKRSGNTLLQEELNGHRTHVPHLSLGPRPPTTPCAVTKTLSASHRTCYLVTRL

Hippocampus [31] = assay: Inhibition of amplitude of inhibitory postsynaptic currents in Wistar rat hippocampal CA3-CA1 region at 100 nM by patch clamp method; format: functional, tissue-based
[32] = target: T1, Acid-sensing ion channel 1 (Homo sapiens); assay: Reversible inhibition of human ASIC1a endogenously expressed in HEK293 cells clamped at -100 mV gated ionic current at pH 5.0 measured after drug wash out by standard whole cell patch clamp assay; format: cell-based
Hippocampus [33] = assay: Inhibition of amplitude of excitatory postsynaptic currents in Wistar rat hippocampal CA3-CA1 region at 100 nM by patch clamp method; format: functional, tissue-based

inhibition [1]: 53.2% | inhibition [2]: 78.7% | inhibition [3]: 77.5% | inhibition [4]: 101%
Structure (SMILES): CCN(CC)CCN(CC)c1ccc2cc(C(=N)N)c(=O)oc2c1

inhibition [1]: 22.3% | inhibition [2]: 36.6% | inhibition [3]: 42.9% | inhibition [4]: 79.2%
Structure (SMILES): CN(Cc1ccccc1)c1ccc2cc(C(=N)N)c(=O)oc2c1

IC50 [6]: 7.34 µM | inhibition [7]: 45.8% | IC50 [8]: 0.0274 µM | Activity [9]: 99.3% | inhibition [10]: inactive | Activity [11]: 72.2% | EC50 [12]: 6.5 pH | inhibition [3]: 2.5% | inhibition [14]: Active | Activity [17]: 83.9% | inhibition [18]: 42.1% | Activity [20]: 93.2% | EC50 [21]: 6.18 pH | inhibition [22]: 98.6% | Activity [25]: 9.39% | inhibition [26]: Active | inhibition [27]: 23.7% | Activity [28]: 48.3% | EC50 [29]: 6.4 pH | Activity [30]: 45.2% | inhibition [4]: 44.8% | inhibition [32]: Active
Structure (SMILES): CCN(CC)CCN(Cc1ccc(Cl)cc1)c1ccc2cc(C(=N)N)c(=O)oc2c1
Activity (Hippocampus [5]): 103.4% | Activity (Hippocampus [13]): 104.6% | Activity (Hippocampus [15]): 106.2% | Activity (Hippocampus [16]): 117% | Activity (Hippocampus [19]): 193.2% | Activity (Hippocampus [23]): Active | Activity (Hippocampus [24]): Active | inhibition (Hippocampus [31]): inactive | inhibition (Hippocampus [33]): inactive
